The target in one experiment is T1, human ETA receptors (Homo sapiens, UniProt P25101).
T1 construct: endogenous in cells; host or cells: TE 671 cells (ATCC HTB 139)
T1 sequence (P25101 21-427): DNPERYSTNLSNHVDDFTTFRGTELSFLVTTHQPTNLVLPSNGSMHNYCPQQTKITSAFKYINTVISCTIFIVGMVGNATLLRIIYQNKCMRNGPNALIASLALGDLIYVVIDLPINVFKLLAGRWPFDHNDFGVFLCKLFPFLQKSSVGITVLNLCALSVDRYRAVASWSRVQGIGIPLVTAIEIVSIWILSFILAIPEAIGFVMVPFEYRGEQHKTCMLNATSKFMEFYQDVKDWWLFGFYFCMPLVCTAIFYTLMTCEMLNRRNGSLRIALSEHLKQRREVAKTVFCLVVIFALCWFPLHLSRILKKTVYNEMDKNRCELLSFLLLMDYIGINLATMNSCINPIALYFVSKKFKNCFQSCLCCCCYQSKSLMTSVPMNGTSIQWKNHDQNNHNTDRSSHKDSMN
Briefly: Binding Test #1: inhibition of 125I-ET-1 binding to ETA receptors (TE 671 cell membranes). Put shortly:
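Radioligand competition in triplicate: ¹²⁵I-endothelin-1 displaced by test compound (1 nM–100 μM final) from ETA-bearing TE 671 cell membranes in HEPES pH 7.4 binding buffer with NaCl, MgCl2 and bacitracin. Incubation 16–18 h at 4 °C (or at 24 °C); 80 nM ET-1 defines nonspecific binding; pellet radioactivity gives percent inhibition.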

A further experiment has as its target T2, human ETB receptor (Homo sapiens, UniProt P24530).
T2 construct: expressed in transfected cells; host or cells: COS7 cells
T2 sequence (P24530 27-442): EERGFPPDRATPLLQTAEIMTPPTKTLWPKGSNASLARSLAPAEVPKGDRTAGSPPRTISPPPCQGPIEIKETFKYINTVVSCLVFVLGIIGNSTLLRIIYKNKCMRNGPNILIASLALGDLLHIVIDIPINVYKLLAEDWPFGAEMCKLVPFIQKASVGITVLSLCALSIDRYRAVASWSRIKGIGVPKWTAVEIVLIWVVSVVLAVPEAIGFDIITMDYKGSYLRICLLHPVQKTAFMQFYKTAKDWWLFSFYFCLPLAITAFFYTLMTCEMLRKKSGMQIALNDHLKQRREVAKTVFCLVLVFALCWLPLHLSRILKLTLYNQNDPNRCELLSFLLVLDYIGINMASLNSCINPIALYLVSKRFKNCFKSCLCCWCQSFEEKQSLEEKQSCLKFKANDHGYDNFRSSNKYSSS
As to the kind of experiment: Binding Test #2: inhibition of 125I-ET-1 binding to ETB receptors (transfected COS7 cell membranes). Conditions: read-out: ETB. The source says: Compounds that are potential endothelin antagonists are identified by testing their ability to compete with ^125I-labeled ET-1 for binding to human ETA receptors or ETB receptors present on isolated cell membranes. The effectiveness of the test compound as an antagonist or agonist of the biological tissue response of endothelin can also be assessed by measuring the effect on endothelin induced contraction of isolated rat thoracic aortic rings. The ability of the compounds to act as antagonists or agonists for ETB receptors can be assess by testing the ability of the compounds are to inhibit endothelin-1 induced prostacyclin release from cultured bovine aortic endothelial cells.
B. Endothelin Binding Inhibition—Binding Test #2: Inhibition of Binding to ETB Receptors
COS7 cells were transfected with DNA encoding the ETB receptor, The resulting cells, which express the human ETB receptor, were grown to confluence in T-150 flasks. Membrane was prepared as described above. The binding assay was performed as described above using the membrane preparation diluted with binding buffer to a concentration of 1 μg/50 μl.
Briefly, the COS7 cells, described above, that had been transfected with DNA encoding the ETB receptor and express the human ETB receptor on their surfaces were grown to confluence in T-1 75 flasks. Cells from multiple flasks were collected by scraping, pooled and centrifuged for 10 min at 190×g. The cells were resuspended in phosphate buffered saline (PBS) containing 10 mM EDTA using a Tenbroeck homogenizer. The suspension was centrifuged at 4° C. 57,800 X g for 15 min, the pellet was resuspended in 5 ml of buffer A (5mM HEPES buffer, pH 7.4 containing aprotinin (100 KIU/ml)) and then frozen and thawed once. Five ml of Buffer B (5 mM HEPES Buffer, pH 7.4 containing 10 mM MnCl2 and 0.001% deoxyribonuclease Type 1) was added, the suspension mixed by inversion and then incubated at 37° C. for 30 minutes. The mixture was centrifuged at 57,800×g as described above, the pellet washed twice with buffer A and then resuspended in buffer C (30 mM HEPES buffer, pH 7.4 containing aprotinin (100 KIU/ml) to give a final protein concentration of 2 mg/ml.
The binding assay was performed as described above using the membrane preparation diluted to give 1 μg/50 μl of binding buffer.

Where [1] appears, read: Table 1, incubation at 4° C., read-out: ETA.
[2] abbreviates: Table 1, † incubation at 24° C., read-out: ETA.
Where [3] appears, read: Table 1, † incubation at 24° C.

Molecules are shown by their SMILES. Where two headings read alike, the source gives them in different places. Bounds are passed on as bounds.

Turning to `Cc1cc(S(=O)(=O)Nc2onc(C)c2Br)c(C)o1` [N-(4-bromo-3-methyl-5-isoxazolyl)-2,5-dimethylfuran-3-sulfonamide], the IC50 was 0.46 µM on human ETA receptors (setting [1]) and 36.5 µM at human ETB receptor (Table 1, incubation at 4° C.).
As to `Cc1ccc(C=CCc2sccc2S(=O)(=O)Nc2onc(C)c2Br)c(C)c1` [N-(4-bromo-3-methyl-5-isoxazolyl)-2-(2,4-dimethylcinnamyl)thiophene-3-sulfonamide], the IC50 was determined as 0.166 µM at human ETA receptors (setting [2]) and 2.97 µM at human ETB receptor (setting [3]).
On to `CCCCc1ccc(NC(=O)c2sccc2S(=O)(=O)Nc2onc(C)c2Br)cc1` [N-(4-bromo-3-methyl-5-isoxazolyl)-2-(4-butylphenyl)aminocarbonylthiophene-3-sulfonamide], for which the IC50 at human ETA receptors (setting [1]) worked out at 0.044 µM; at human ETB receptor (Table 1, incubation at 4° C.), 2.84 µM.
In the same order, the values of `Cc1noc(NS(=O)(=O)c2ccsc2C(=O)Nc2ccc(C(C)(C)C)cc2)c1Br` [N-(4-bromo-3-methyl-5-isoxazolyl)-2-(4-t-butylphenyl)aminocarbonylthiophene-3-sulfonamide] are 0.011 µM and 2.82 µM.
In the case of `Cc1noc(NS(=O)(=O)c2ccsc2C(=O)Nc2ccccc2)c1Br` [N-(4-bromo-3-methyl-5-isoxazolyl)-2-(N-phenylaminocarbonyl)thiophene-3-sulfonamide], the IC50 on human ETA receptors (setting [1]) was 0.0054 µM; on human ETB receptor (Table 1, incubation at 4° C.), 18.8 µM.
`COC(=O)c1sccc1S(=O)(=O)Nc1onc(C)c1Br` [N-(4-bromo-3-methyl-5-isoxazolyl)-2-(carbomethoxy)thiophene-3-sulfonamide]: the IC50 at human ETA receptors (setting [1]) amounted to 0.0208 µM; at human ETB receptor (Table 1, incubation at 4° C.), 98.1 µM.
`Cc1cc2c(cc1C=CCc1sccc1S(=O)(=O)Nc1onc(C)c1Br)OCO2` [N-(4-bromo-3-methyl-5-isoxazolyl)-2-[2-methyl-4,5-(methylenedioxy)cinnamyl]thiophene-3-sulfonamide]: the IC50 at human ETA receptors (setting [2]) stood at 0.0804 µM; on human ETB receptor (setting [3]) it was 3.28 µM.
In the same order, the values of `Cc1cc2c(cc1CCc1sccc1S(=O)(=O)Nc1onc(C)c1Br)OCO2` [N-(4-bromo-3-methyl-5-isoxazolyl)-2-[2-methyl-4,5-(methylenedioxy)phenethyl]thiophene-3-sulfonamide] are 0.0619 µM and 8.9 µM.
In the same order, the values of `Cc1noc(NS(=O)(=O)c2ccsc2C(=O)NC(=O)c2ccc3c(c2)OCO3)c1Br` [N-(4-bromo-3-methyl-5-isoxazolyl)-2-[(3,4-methylenedioxy)benzoyl]aminocarbonyl]thiophene-3-sulfonamide] are 0.089 µM and 37 µM.
Take `Cc1noc(NS(=O)(=O)c2ccsc2C(=O)c2ccc3c(c2)OCO3)c1Br` [N-(4-bromo-3-methyl-5-isoxazolyl)-2-[(3,4-methylenedioxy)benzoyl]thiophene-3-sulfonamide]: the IC50 was found to be 2 µM at human ETA receptors (setting [2]) and 15 µM at human ETB receptor (setting [3]).
In the case of `Cc1noc(NS(=O)(=O)c2ccsc2CCc2ccc3c(c2)OCO3)c1Br` [N-(4-bromo-3-methyl-5-isoxazolyl)-2-[(3,4-methylenedioxy)phenethyl]thiophene-3-sulfonamide], the figures for the IC50 on human ETA receptors (setting [2]) and at human ETB receptor (setting [3]) were 0.21 µM and 9.2 µM, respectively.
In the case of `Cc1ccc(NC(=O)c2sccc2S(=O)(=O)Nc2onc(C)c2Br)cc1` [N-(4-bromo-3-methyl-5-isoxazolyl)-2-[-(4-tolulylaminocarbonyl]thiophene-3-sulfonamide], the IC50 on human ETA receptors (setting [1]) was below 0.01 µM; on human ETB receptor (Table 1, incubation at 4° C.), 1.67 µM.
In the case of `Cc1noc(NS(=O)(=O)c2ccsc2C(=O)Nc2ccc(C(C)C)cc2)c1Br` [N-(4-bromo-3-methyl-5-isoxazolyl)-2-[N-(4-isopropylphenyl)aminocarbonyl]thiophene-3-sulfonamide], the IC50 at human ETA receptors (setting [1]) was below 0.01 µM; on human ETB receptor (Table 1, incubation at 4° C.), 1.13 µM.
Turning to `CCC(C)c1ccc(NC(=O)c2sccc2S(=O)(=O)Nc2onc(C)c2Br)cc1` (centres unmarked) [N-(4-bromo-3-methyl-5-isoxazolyl)-2-[N-(4-sec-butylphenyl)aminocarbonyl]thiophene-3-sulfonamide], the IC50 on human ETA receptors (setting [1]) is around 0.008 µM; on human ETB receptor (Table 1, incubation at 4° C.), 1.76 µM.
Take `Cc1noc(NS(=O)(=O)c2ccsc2C/C=C/c2ccc3c(c2)OCO3)c1Br` [N-(4-bromo-3-methyl-5-isoxazolyl)-2-[trans-(3,4-methylenedioxy)cinnamyl]thiophene-3-sulfonamide]: the IC50 was 0.14 µM at human ETA receptors (setting [2]) and 1.4 µM on human ETB receptor (setting [3]).
`Cc1noc(NS(=O)(=O)c2ccccc2-c2ccccc2)c1Br` [N-(4-bromo-3-methyl-5-isoxazolyl)-2-biphenylsulfonamide]: the IC50 at human ETA receptors (Table 2, incubation at 4° C., read-out: ETA) is 0.00127 µM; at human ETA receptors (read-out: IC50 for ETA receptors), around 0.0016 µM; on human ETB receptor (Table 2, incubation at 4° C.) it was 8.54 µM.
Take `CCCCc1sc2ccccc2c1S(=O)(=O)Nc1onc(C)c1Br` [N-(4-bromo-3-methyl-5-isoxazolyl)-2-butylbenzo[b]thiophene-3-sulfonamide]: the IC50 at human ETA receptors (setting [1]) was 0.0226 µM; at human ETB receptor (Table 1, incubation at 4° C.) it was around 3 µM.
Turning to `Cc1noc(NS(=O)(=O)c2c(C(=O)O)n(C)c3ccccc23)c1Br` [N-(4-bromo-3-methyl-5-isoxazolyl)-2-carboxyl-1-methylidole-3-sulfonamide], the IC50 was 0.59 µM at human ETA receptors (setting [2]) and 104 µM at human ETB receptor (setting [3]).
Take `CCc1sc2ccc(C)cc2c1S(=O)(=O)Nc1onc(C)c1Br` [N-(4-bromo-3-methyl-5-isoxazolyl)-2-ethyl-5-methylbenzo[b]thiophene-3-sulfonamide]: the IC50 at human ETA receptors (setting [2]) turned out to be 1.89 ± 0.431 µM; on human ETB receptor (setting [3]), 54.3 ± 2.6 µM.
For `CCc1sc2ccccc2c1S(=O)(=O)Nc1onc(C)c1Br` [N-(4-bromo-3-methyl-5-isoxazolyl)-2-ethylbenzo[b]thiophene-3-sulfonamide], the IC50 on human ETA receptors (setting [1]) worked out at 0.0067 µM; on human ETB receptor (Table 1, incubation at 4° C.), 5.13 µM.
For `Cc1noc(NS(=O)(=O)c2c(C(C)C)sc3ccccc23)c1Br` [N-(4-bromo-3-methyl-5-isoxazolyl)-2-i-propylbenzo[b]thiophene-3-sulfonamide], the IC50 at human ETA receptors (setting [1]) was found to be 0.005 µM; at human ETA receptors (setting [2]) it was 0.03 µM; on human ETB receptor (Table 1, incubation at 4° C.), 5.7 µM; on human ETB receptor (setting [3]), 10.7 µM.
`Cc1noc(NS(=O)(=O)c2c(C)sc3ccccc23)c1Br` [N-(4-bromo-3-methyl-5-isoxazolyl)-2-methylbenzo[b]thiophene-3-sulfonamide]: the IC50 at human ETA receptors (setting [1]) worked out at 0.0486 µM; at human ETB receptor (Table 1, incubation at 4° C.), 3.5 µM.
In the same order, the values of `Cc1noc(NS(=O)(=O)c2c(Cc3ccccc3)sc3ccccc23)c1Br` [N-(4-bromo-3-methyl-5-isoxazolyl)-2-n-benzylbenzo[b]thiophene-3-sulfonamide] are 0.0182 µM and around 1 µM.
For `CCCc1sc2ccccc2c1S(=O)(=O)Nc1onc(C)c1Br` [N-(4-bromo-3-methyl-5-isoxazolyl)-2-n-propylbenzo[b]thiophene-3-sulfonamide], the IC50 on human ETA receptors (setting [1]) was 0.024 µM; at human ETA receptors (setting [2]), 0.074 µM; at human ETB receptor (Table 1, incubation at 4° C.), 7.95 µM; at human ETB receptor (setting [3]), 16.6 µM.

The values are drawn from US6683103B2, “Sulfonamides for treatment of endothelin-mediated disorders” (Texas Biotechnology Corporation, priority 1997, dated 2004).
